{"source": "paper PMC9063446", "about": "“Biochemical and in silico identification of the active site and the catalytic mechanism of the circadian deadenylase HESPERIN” (FEBS Open Bio, 2022)", "key": {"AtHESPERIN (Hesperin)": {"molecular_target": "T1, AtHESPERIN (Hesperin) (Arabidopsis thaliana, UniProt A8MS41)", "T1 construct": "gene CCR4-4; HESPERIN cDNA in pATHRA (pET-15b derived), E. coli BL21-GOLD(DE3); N-terminal 6xHis tag cut by HRV 3C protease; SEC; oligomer, mainly trimer (~150 kDa)", "T1 sequence (A8MS41 1-417)": "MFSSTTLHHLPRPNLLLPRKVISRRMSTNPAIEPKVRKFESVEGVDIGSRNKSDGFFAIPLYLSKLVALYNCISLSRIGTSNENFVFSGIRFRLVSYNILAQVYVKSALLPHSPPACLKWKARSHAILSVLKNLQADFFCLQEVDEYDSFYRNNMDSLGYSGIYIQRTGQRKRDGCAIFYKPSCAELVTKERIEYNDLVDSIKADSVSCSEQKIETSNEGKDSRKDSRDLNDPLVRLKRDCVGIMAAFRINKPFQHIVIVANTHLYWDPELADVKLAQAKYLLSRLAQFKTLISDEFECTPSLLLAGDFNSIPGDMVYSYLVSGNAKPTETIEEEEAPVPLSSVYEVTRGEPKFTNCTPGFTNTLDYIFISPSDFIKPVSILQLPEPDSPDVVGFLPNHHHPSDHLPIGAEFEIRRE", "assay": "colorimetric methylene blue poly(A) degradation assay, modified Hanes-Woolf plot", "assay_type": "biochemical", "conditions": "substrate poly(A); Buffer R with 2 mM MgCl2, 0.1 M NaCl, pH 6.5, 25 °C; competitive, reaction product"}, "[1]": {"molecular_target": "the molecule itself", "assay": "native gel or EMSA; 7% PAGE under nondenaturing conditions for acidic proteins; 16 ug AtHESPERIN incubated with urea, up to 4 M; BSA and urease as mass standards"}}}
{"molecule": "Nc1ncnc2c1ncn2[C@@H]1O[C@H](COP(=O)(O)O)[C@@H](O)[C@H]1O", "note": "[AMP]", "values": [{"measurement": "Ki", "setting": "AtHESPERIN (Hesperin)", "result": "1800 ± 200", "unit": "nM"}]}
{"molecule": "AtHESPERIN (enzyme, Arabidopsis thaliana, UniProt A8MS41 1-417, looked up, AtHESPERIN (Hesperin), circadian EEP deadenylase of Arabidopsis thaliana, UniProtKB A8MS41; cDNA cloned in pATHRA behind 6x His tag and HRV 3C site; The His tag was removed with HRV 3C protease (site LEVLFQ/GP), so residues of the site may be left at the N-terminus; It calls the oligomer mainly trimeric; also called native AtHESPERIN; wild-type AtHESPERIN; source: E. coli BL21-GOLD (DE3), …) MFSSTTLHHLPRPNLLLPRKVISRRMSTNPAIEPKVRKFESVEGVDIGSRNKSDGFFAIPLYLSKLVALYNCISLSRIGTSNENFVFSGIRFRLVSYNILAQVYVKSALLPHSPPACLKWKARSHAILSVLKNLQADFFCLQEVDEYDSFYRNNMDSLGYSGIYIQRTGQRKRDGCAIFYKPSCAELVTKERIEYNDLVDSIKADSVSCSEQKIETSNEGKDSRKDSRDLNDPLVRLKRDCVGIMAAFRINKPFQHIVIVANTHLYWDPELADVKLAQAKYLLSRLAQFKTLISDEFECTPSLLLAGDFNSIPGDMVYSYLVSGNAKPTETIEEEEAPVPLSSVYEVTRGEPKFTNCTPGFTNTLDYIFISPSDFIKPVSILQLPEPDSPDVVGFLPNHHHPSDHLPIGAEFEIRRE", "values": [{"measurement": "stoichiometry N", "setting": "[1]", "result": 3}]}
